Key:
[1] = test system: mouse acute liver injury model; assay: Mouse acute liver injury model (CCl4); format: in vivo, C57BL/6 mice; details: for Acta2 mRNA expression / Col1a1 mRNA expression / Tgfb1 mRNA expression: liver; for ALT / AST: serum, 3 days
Protocol: The mice were randomly divided into 8 groups, one of which was randomly selected as the normal group, and the other 7 groups were the model group, the parent drug 1 (0.4 and 4 μmol/kg), the hydrochloride 22 (4 μmol/kg), and the fumarate 23 (0.4 and 4 μmol/kg) groups, respectively, with 6 mice in each group. In addition to the normal group injected with 10 mL olive oil/kg, the other mice were injected intraperitoneally with 0.5 mL CCl4+9.5 mL olive oil/kg weight, i.e., the ratio of CCl4 to olive oil was 1:19. […] The mice in the normal group and model group were administered intragastrically the same volume of the solvent 0.5% CMC-Na.
1 h after the last administration, blood was collected from the venous plexus of fundus oculi, stood at room temperature for 2 h, and centrifuged at 3000 rpm for 20 min. The serum was aspirated, aliquoted, and frozen at −70° C. for subsequent use. After blood collection, the mice were sacrificed by cervical dislocation, and the abdominal cavity was opened. The livers were taken out, and rinsed twice with pre-cooled PBS. The liver left lobe tissues of the mice were cut, and fixed with 4% paraformaldehyde for 24-48 h. The remaining tissues were frozen at −70° C. for subsequent use.
μL of each sample was taken for experiments. The levels of AST and ALT in the serum of mice were detected according to the operation manual. The absorbance value was detected at the wavelength of 510 nm by a microplate reader, and the sample concentration (U/L) was calculated according to the standard curve.
The extraction method of total RNA from tissues, cDNA synthesis and the PCR amplification method are the same as those in Example 4.

[2] = test system: mouse acute kidney injury models; assay: Mouse acute kidney injury model (folic acid); format: in vivo, C57BL/6 mice; design: Havcr1 mRNA expression / Ngal mRNA expression / Tnf mRNA expression / Il1 mRNA expression / Il6 mRNA expression / α-Sma mRNA expression / Col1a1 mRNA expression / Tgfb1 mRNA expression: scale not given here; BUN (urea level in serum): unit not given here; details: for Scr (creatinine level in serum): in µmol/L (unit assumed); for Col1a1 mRNA expression / Havcr1 mRNA expression / Il1 mRNA expression / Il6 mRNA expression / Ngal mRNA expression / Tgfb1 mRNA expression / Tnf mRNA expression / α-Sma mRNA expression: kidney
Protocol: Acute kidney injury: The mice were randomly divided into 7 groups, one of which was randomly selected as the normal group, and the other 6 groups were the model group, the parent drug 1 (0.4 and 4 μmol/kg), the hydrochloride 22 (4 μmol/kg), and the fumarate 23 (0.4 and 4 μmol/kg) groups, respectively, with 6 mice in each group. In addition to the mice in the normal group, other mice were injected intraperitoneally with folic acid dissolved in 0.9% NaHCO3 solution (250 mg/kg) to establish mouse acute kidney injury models. 1 h before model establishment, the parent drug 1 (0.4 and 4 μmol/kg), the hydrochloride 22 (4 μmol/kg) and the fumarate 23 (0.4 and 4 μmol/kg) were administered intragastrically for 3 consecutive days. The mice in the normal group and model group were administered intragastrically the same volume of the solvent 0.5% CMC-Na.
1 h after the last administration, blood was collected from the venous plexus of fundus oculi, stood at room temperature for 2 h, and centrifuged at 3000 rpm for 20 min. The serum was aspirated, aliquoted, and frozen at −70° C. for subsequent use. After blood collection, the mice were sacrificed by cervical dislocation, and the abdominal cavity was opened. The kidneys were taken out, rinsed twice with pre-cooled PBS after the perirenal fats and capsules were peeled off, and then fixed with 4% paraformaldehyde for 24-48 h, embedded in paraffin and stained with HE. The remaining tissues were frozen at −70° C. for subsequent use.
μL serum was taken from each sample for the detection of creatinine and urea levels. Samples were added in accordance with the instructions of the kit strictly. After incubation at 37° C., the absorbance value was measured in a microplate reader, and the content levels of detection indicators in each group were calculated according to the standard curve.
The extraction of total RNA from animal tissues, cDNA synthesis and PCR amplification are as in above examples.

| SMILES | Acta2 mRNA expression ([1]; 0.4 μmol/kg) | Col1a1 mRNA expression ([1]; 0.4 μmol/kg) | Tgfb1 mRNA expression ([1]; 0.4 μmol/kg) | Acta2 mRNA expression ([1]; 4 μmol/kg) | Col1a1 mRNA expression ([1]; 4 μmol/kg) | Tgfb1 mRNA expression ([1]; 4 μmol/kg) | ALT ([1]; 0.4 μmol/kg i.g.) [U/L] | AST ([1]; 0.4 μmol/kg i.g.) [U/L] | ALT ([1]; 4 μmol/kg i.g.) [U/L] | AST ([1]; 4 μmol/kg i.g.) [U/L] | BUN (urea level in serum) ([2]; 4 μmol/kg i.g.) | Scr (creatinine level in serum) ([2]; 4 μmol/kg i.g.) | Col1a1 mRNA expression ([2]; 4 μmol/kg) | Havcr1 mRNA expression ([2]; 4 μmol/kg) | Il1 mRNA expression ([2]; 4 μmol/kg) | Il6 mRNA expression ([2]; 4 μmol/kg) | Ngal mRNA expression ([2]; 4 μmol/kg) | Tgfb1 mRNA expression ([2]; 4 μmol/kg) | Tnf mRNA expression ([2]; 4 μmol/kg) | α-Sma mRNA expression ([2]; 4 μmol/kg) | other results |
| --- | --- | --- | --- | --- | --- | --- | --- | --- | --- | --- | --- | --- | --- | --- | --- | --- | --- | --- | --- | --- | --- |
| C=C1C(=O)O[C@@H]2[C@@H]3[C@]4(CC[C@@]3(C)O)C[C@]4(C)CC[C@@H]12 [Compound 1] | 3.78 | 2.33 | 1.43 | 2.41 | 1.42 | 1.12 | 174.83 | 425.20 | 105.14 | 239.08 | 21.33 | 71.95 | 1.32 | 99.99 | 1.72 | 3.98 | 20.17 | 1.36 | 2.76 | 1.42 | BUN (urea level in serum) ([2]; 0.4 μmol/kg i.g.): 31.46; Scr (creatinine level in serum) ([2]; 0.4 μmol/kg i.g.): 108.48; Col1a1 mRNA expression ([2]; 0.4 μmol/kg): 1.64; Havcr1 mRNA expression ([2]; 0.4 μmol/kg): 175.10; Il1 mRNA expression ([2]; 0.4 μmol/kg): 2.62; Il6 mRNA expression ([2]; 0.4 μmol/kg): 8.02; Ngal mRNA expression ([2]; 0.4 μmol/kg): 30.52; Tgfb1 mRNA expression ([2]; 0.4 μmol/kg): 1.96; Tnf mRNA expression ([2]; 0.4 μmol/kg): 2.89; α-Sma mRNA expression ([2]; 0.4 μmol/kg): 1.82 |
| CN(C)C[C@@H]1C(=O)O[C@H]2[C@H]1CC[C@@]1(C)C[C@]13CC[C@@](C)(O)[C@H]23 [Compound 22] |  |  |  | 1.85 | 1.16 | 0.92 |  |  | 85.02 | 153.34 | 16.74 | 64.94 | 1.18 | 62.86 | 1.06 | 1.55 | 13.05 | 0.98 | 2.31 | 1.11 |  |
| CN(C)C[C@@H]1C(=O)O[C@H]2[C@H]1CC[C@@]1(C)C[C@]13CC[C@@](C)(O)[C@H]23 [Compound 23] | 2.97 | 1.83 | 1.08 | 2.15 | 1.33 | 0.97 | 134.21 | 387.71 | 99.46 | 216.14 | 18.95 | 50.39 | 1.20 | 83.11 | 1.45 | 5.61 | 13.08 | 1.09 | 2.42 | 0.90 | BUN (urea level in serum) ([2]; 0.4 μmol/kg i.g.): 30.08; Scr (creatinine level in serum) ([2]; 0.4 μmol/kg i.g.): 90.69; Col1a1 mRNA expression ([2]; 0.4 μmol/kg): 1.58; Havcr1 mRNA expression ([2]; 0.4 μmol/kg): 170.08; Il1 mRNA expression ([2]; 0.4 μmol/kg): 2.07; Il6 mRNA expression ([2]; 0.4 μmol/kg): 6.47; Ngal mRNA expression ([2]; 0.4 μmol/kg): 25.75; Tgfb1 mRNA expression ([2]; 0.4 μmol/kg): 1.64; Tnf mRNA expression ([2]; 0.4 μmol/kg): 2.60; α-Sma mRNA expression ([2]; 0.4 μmol/kg): 1.80 |
